Experimental data as given in patent US4413009A, “N-((Alkylamino)carbonyl)-N-(((alkylamino)carbonyl)oxy)acylamides with antineoplastic activity” (priority 1982, dated 1983).

Assays:
[1] = tested on: HeLa cells; experiment: HeLa cell colony cytotoxicity / growth inhibition test; format: cell-based, human; conditions: 8 days, 0-50 μg/ml
Procedure: HeLa cells were seeded in 24-well tissue culture plates at a concentration of 30 cells per well in 1 ml of growth medium (Eagle's minimum essential medium with 5 percent HIFCS). The plates were incubated at 36° C. for 24 hours after which the growth medium was removed. The cells were resuspended in 1 ml of fresh growth medium described above together with a measured quantity of (0-50 μg/ml) of one of the compounds of this invention. The 0 μg/ml concentration served as a control. The tissue culture plates were then incubated at 36° C. for 8 days at which time the medium was removed and the cells were fixed and stained with 0.1% crystal violet in 20% ethanol. The HeLa cell colonies were counted macroscopically, and comparisons of colony size in treated and control wells were made. Test compounds were considered cytotoxic at concentrations which reduced the number of HeLa cell colonies compared to control by 50% or more. Test compounds of the invention were considered to cause HeLa cell growth inhibition at concentrations which reduced the size of colonies by a measurable amount when compared to control.

[2] = tested on: P388 leukemia; experiment: Antineoplastic activity against P388 lymphocytic leukemia in mice (IP), survival time and toxicity day survivors; format: in vivo, mice (CDF1); conditions: for Toxicity Day Survivors: survivors/started
Procedure: (A) Test mice (CDF1 mice) were injected intraperitoneally (IP) with ascitic fluid containing 10^6 cells of P388 lymphocytic leukemia. The test compound was administered in a sialine -Tween 80 carrier at the appropriate dosage, IP daily for 9 days; the initial treatment performed the first day after tumor inoculation. Control mice received no compound.

[3] = tested on: MX-1 human breast xenograft; experiment: Activity against MX-1 human breast xenograft in subrenal capsule of athymic mice, tumor size change and toxicity day survivors; format: in vivo, human (xenograft in athymic Swiss Nu/Nu mice); conditions: survivors/started
Procedure: (B) A tumor fragment (MX-1 human breast xenograft) having a diameter of between 9 and 12 ocular micrometer units (OMU) (approximately 1×1×1 millimeter) was implanted and measured in situ in the subrenal capsule of athymic Swiss (Nu/Nu Swiss) mice. The appropriate dosage of the test compound in a saline carrier was administered by subcutaneous injection once daily for 10 days; the initial treatment was performed on the first day after tumor implant. No test compound was administered to the control mice. Test mice were sacrificed on the eleventh day and tumor size noted. The change in tumor diameter (from day 0 (implant day) to day 11 (sacrifice day)) as compared with the tumor size of the control was used as an evaluation of tumor growth or regression.

[4] = Experiment No. 1, 50.00 mg/kg per injection IP daily for 9 days
[5] = Experiment No. 2, 12.50 mg/kg per injection IP daily for 9 days
[6] = Experiment No. 2, 25.00 mg/kg per injection IP daily for 9 days
[7] = Experiment No. 2, 50.00 mg/kg per injection IP daily for 9 days

CNC(=O)ON(C(C)=O)C(=O)NC [Example 1, N-((Methylamino)carbonyl)-N-(((methylamino)carbonyl)oxy)acetamide] was tested, and the “Cell Growth Inhibition: concentration at which the size of the HeLa colonies were reduced by a measurable amount (as compared to control)” value [1] was 12.5 µg/mL, the “median survival time of the test animals (in words)” value ([2]; 50 mg/kg per injection, one experiment) was “increased the median survival time” and the “median survival time of the test animals (in words)” value ([2]; 12.50, 25 and 50 mg/kg per injection, another experiment) was “increased the median survival time”. For the same compound, the “T/C % (median survival time, treated vs control)” value [2, 4] was 142%, the “Toxicity Day Survivors” value [2, 4] was 06/06 and the “Toxicity Day Survivors” value ([2]; Experiment No. 1, 100.00 mg/kg per injection IP daily for 9 days) was 01/06. The “Toxicity Day Survivors” value ([2]; Experiment No. 1, 200.00 mg/kg per injection IP daily for 9 days) was 00/06, the “T/C % (median survival time, treated vs control)” value [2, 5] was 131% and the “Toxicity Day Survivors” value [2, 5] was 06/06. The “T/C % (median survival time, treated vs control)” value [2, 6] was 126%, the “Toxicity Day Survivors” value [2, 6] was 06/06 and the “T/C % (median survival time, treated vs control)” value [2, 7] was 141%. For the same compound, the “Toxicity Day Survivors” value [2, 7] was 06/06, the “Toxicity Day Survivors” value ([2]; Experiment No. 2, 100.00 mg/kg per injection IP daily for 9 days) was 03/06 and the “median survival time of the test mice afflicted with P388 leukemia (in words)” value ([2]; Table 3 data) was “increased the median survival time”. The “Toxicity Day Survivors” value ([3]; Experiment 1, 12.5 mg/kg s.c. daily for 10 days) was 03/03, the “Toxicity Day Survivors” value ([3]; Experiment 1, 25 mg/kg s.c. daily for 10 days) was 03/03 and the “Toxicity Day Survivors” value ([3]; Experiment 1, 50 mg/kg s.c. daily for 10 days) was 03/03. For the same compound, the “Toxicity Day Survivors” value ([3]; Experiment 1, 100 mg/kg s.c. daily for 10 days) was 01/03, the “Toxicity Day Survivors” value ([3]; Experiment 2, 25 mg/kg s.c. daily for 10 days) was 06/06 and the “Toxicity Day Survivors” value ([3]; Experiment 2, 50 mg/kg s.c. daily for 10 days) was 06/06. For the same compound, the “Toxicity Day Survivors” value ([3]; Experiment 2, 100 mg/kg s.c. daily for 10 days) was 06/06, the “Toxicity Day Survivors” value ([3]; Experiment 2, 200 mg/kg s.c. daily for 10 days) was 05/06 and the “Toxicity Day Survivors” value ([3]; Experiment 3, 25 mg/kg s.c. daily for 10 days) was 06/06. The “Toxicity Day Survivors” value ([3]; Experiment 3, 50 mg/kg s.c. daily for 10 days) was 06/06, the “Toxicity Day Survivors” value ([3]; Experiment 3, 100 mg/kg s.c. daily for 10 days) was 06/06 and the “Toxicity Day Survivors” value ([3]; Experiment 3, 200 mg/kg s.c. daily for 10 days) was 00/06. For the same compound, the “Toxicity Day Survivors” value ([3]; Experiment 4, 25 mg/kg s.c. daily for 10 days) was 03/03, the “Toxicity Day Survivors” value ([3]; Experiment 4, 50 mg/kg s.c. daily for 10 days) was 02/02 and the “Toxicity Day Survivors” value ([3]; Experiment 4, 100 mg/kg s.c. daily for 10 days) was 03/03. The “Toxicity Day Survivors” value ([3]; Experiment 4, 200 mg/kg s.c. daily for 10 days) was 01/03.
In the case of CCCNC(=O)ON(C(=O)NCCC)C(=O)c1ccccc1 [Example 17, N-((Propylamino)carbonyl)-N-(((propylamino)-carbonyl)oxy)benzamide], the “Cell Growth Inhibition: concentration at which the size of the HeLa colonies were reduced by a measurable amount (as compared to control)” value [1] is reported as 12.5 µg/mL.
For CCCCNC(=O)ON(C(=O)NCCCC)C(=O)c1ccccc1 [Example 18, N-((Butylamino)carbonyl)-N-(((butylamino)-carbonyl)oxy)benzamide], the “Cell Growth Inhibition: concentration at which the size of the HeLa colonies were reduced by a measurable amount (as compared to control)” value [1] was 0.8 µg/mL.
In the case of CC(C)(C)NC(=O)ON(C(=O)NC(C)(C)C)C(=O)c1ccccc1 [Example 19, N-(((1,1-Dimethylethyl)amino)carbonyl)-N-((((1,1-dimethylethyl)amino)carbonyl)oxy)benzamide], the “Cell Growth Inhibition: concentration at which the size of the HeLa colonies were reduced by a measurable amount (as compared to control)” value [1] is reported as 50 µg/mL.
In the case of O=C(Nc1ccccc1)ON(C(=O)Nc1ccccc1)C(=O)c1ccccc1 [Example 20, N-((Phenylamino)carbonyl)-N-(((phenyl-amino)carbonyl)oxy)benzamide], the “Cell Growth Inhibition: concentration at which the size of the HeLa colonies were reduced by a measurable amount (as compared to control)” value [1] is reported as 50 µg/mL.
With CCCNC(=O)ON(C(=O)NCCC)C(=O)C1CC1 [Example 22, N-((Propylamino)carbonyl)-N-(((propyl-amino)carbonyl)oxy)cyclopropanecarboxamide] the “Cell Growth Inhibition: concentration at which the size of the HeLa colonies were reduced by a measurable amount (as compared to control)” value [1] was 3.1 µg/mL.
For CNC(=O)ON(C(=O)NC)C(=O)C1CC1 [Example 23, N-((Methylamino)carbonyl)-N-(((methylamino)carbonyl)oxy)cyclopropanecarboxamide], the “Cell Growth Inhibition: concentration at which the size of the HeLa colonies were reduced by a measurable amount (as compared to control)” value [1] was 12.5 µg/mL.
With CCNC(=O)ON(C(=O)NCC)C(=O)C1CC1 [Example 24, N-((Ethylamino)carbonyl)-N-(((ethylamino)carbonyl)oxy)cyclopropanecarboxamide] the “Cell Growth Inhibition: concentration at which the size of the HeLa colonies were reduced by a measurable amount (as compared to control)” value [1] was 3.1 µg/mL.
With CC(C)NC(=O)ON(C(=O)NC(C)C)C(=O)C1CC1 [Example 25, N-(((1-Methylethyl)amino)carbonyl)-N-((((1-methylethyl)amino)carbonyl)oxy)cyclopropanecarboxamide] the “Cell Growth Inhibition: concentration at which the size of the HeLa colonies were reduced by a measurable amount (as compared to control)” value [1] was 3.1 µg/mL.
In the case of CCCCNC(=O)ON(C(=O)NCCCC)C(=O)C1CC1 [Example 26, N-((Butylamino)carbonyl)-N-(((butylamino)carbonyl)oxy)cyclopropanecarboxamide], the “Cell Growth Inhibition: concentration at which the size of the HeLa colonies were reduced by a measurable amount (as compared to control)” value [1] is reported as 12.5 µg/mL.
CC(C)(C)NC(=O)ON(C(=O)NC(C)(C)C)C(=O)C1CC1 [Example 27, N-(((1,1-Dimethylethyl)amino)carbonyl)-N-((((1,1-dimethylethyl)amino)carbonyl)oxy)cyclopropanecarboxamide] was tested, and the “Cell Growth Inhibition: concentration at which the size of the HeLa colonies were reduced by a measurable amount (as compared to control)” value [1] was 50 µg/mL.
With O=C(Nc1ccccc1)ON(C(=O)Nc1ccccc1)C(=O)C1CC1 [Example 28, N-((Phenylamino)carbonyl)-N-(((phenylamino)carbonyl)oxy)cyclopropanecarboxamide] the “Cell Growth Inhibition: concentration at which the size of the HeLa colonies were reduced by a measurable amount (as compared to control)” value [1] was 50 µg/mL.
With O=C(NC1CCCCC1)ON(C(=O)NC1CCCCC1)C(=O)C1CC1 [Example 29, N-((Cyclohexylamino)carbonyl)-N-(((cyclohexylamino)carbonyl)oxy)cyclopropanecarboxamide] the “Cell Growth Inhibition: concentration at which the size of the HeLa colonies were reduced by a measurable amount (as compared to control)” value [1] was 12.5 µg/mL.
For CNC(=O)ON(C(=O)NC)S(C)(=O)=O [Example 30, N-((Methylamino)carbonyl)-N-(((methyl-amino)carbonyl)oxy)methanesulfamide], the “Cell Growth Inhibition: concentration at which the size of the HeLa colonies were reduced by a measurable amount (as compared to control)” value [1] was 3.1 µg/mL.
With CCNC(=O)ON(C(=O)NCC)S(C)(=O)=O [Example 31, N-((Ethylamino)carbonyl)-N-(((ethylamino)-carbonyl)oxy)-methanesulfamide] the “Cell Growth Inhibition: concentration at which the size of the HeLa colonies were reduced by a measurable amount (as compared to control)” value [1] was 3.1 µg/mL.
